Results published in PubChem BioAssay AID330 (DTP/NCI, 2004).
Where “and” joins values, the source holds several entries; their conditions need not be identical. Equal entries are not always repeated. Toxic doses and inconclusive results are not listed. How the source made its calls: active means survival T/C of 150% or more; inactive means T/C below 125% in these data.

Tested on: P388 leukemia ip, CD2F1 mice, survival T/C
Assay: NCI In Vivo Anticancer Drug Screen. Data for tumor model P388 Leukemia (intraperitoneal) in CD2F1 (CDF1) mice
Conditions: endpoint: median survival time, higher = longer survival
Method in brief: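 Mice carrying the transplanted tumor received test compound or vehicle. Survival was recorded in each group, and the value is the treated-group measurement divided by that of the vehicle-treated control group.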

[1] = dose: 12.5 mg/kg/injection, schedule: Q01DX009 (ip), vehicle: saline
[2] = dose: 25.0 mg/kg/injection, schedule: Q01DX009 (ip), vehicle: saline
[3] = dose: 50.0 mg/kg/injection, schedule: Q01DX009 (ip), vehicle: saline
[4] = dose: 100.0 mg/kg/injection, schedule: Q01DX009 (ip), vehicle: saline
[5] = dose: 50.0 mg/kg/injection, schedule: Q01DX009 (ip), vehicle: saline with Tween-80
[6] = dose: 100.0 mg/kg/injection, schedule: Q01DX009 (ip), vehicle: saline with Tween-80
[7] = dose: 200.0 mg/kg/injection, schedule: Q01DX009 (ip), vehicle: saline with Tween-80
[8] = dose: 12.5 mg/kg/injection, schedule: Q01DX005 (ip), vehicle: saline with Tween-80
[9] = dose: 50.0 mg/kg/injection, schedule: Q01DX005 (ip), vehicle: saline with Tween-80
[10] = dose: 25.0 mg/kg/injection, schedule: Q01DX009 (ip), vehicle: saline with Tween-80
[11] = dose: 100.0 mg/kg/injection, schedule: Q01DX005 (ip), vehicle: saline with Tween-80
[12] = dose: 200.0 mg/kg/injection, schedule: Q01DX005 (ip), vehicle: saline with Tween-80
[13] = dose: 50.0 mg/kg/injection, schedule: Q01DX005 (ip), vehicle: Klucel (hydroxypropylcellulose) (HPC)
[14] = dose: 100.0 mg/kg/injection, schedule: Q01DX005 (ip), vehicle: Klucel (hydroxypropylcellulose) (HPC)
[15] = dose: 200.0 mg/kg/injection, schedule: Q01DX005 (ip), vehicle: Klucel (hydroxypropylcellulose) (HPC)
[16] = dose: 6.25 mg/kg/injection, schedule: Q01DX009 (ip), vehicle: saline with Tween-80
[17] = dose: 12.5 mg/kg/injection, schedule: Q01DX009 (ip), vehicle: saline with Tween-80

Measured: T/C

O=[N+]([O-])OI(c1ccccc1)c1ccccc1
inactive: dose: 1.56 mg/kg/injection, schedule: Q01DX009 (ip), vehicle: saline 100 % of control and 101 % of control (2×) | dose: 3.12 mg/kg/injection, schedule: Q01DX009 (ip), vehicle: saline 101 % of control and 104 % of control

O=c1[nH]cc(CS)c(=O)[nH]1
inactive: [1] 102 % of control | [2] 108 % of control | [3] 100 % of control and 102 % of control | [4] 103 % of control

CN1C2CCC1C(CCl)C(O)C2 (stereo not drawn)
inactive: [3] 92 % of control | [4] 88 % of control | dose: 200.0 mg/kg/injection, schedule: Q01DX009 (ip), vehicle: saline 88 % of control

CC(C)(C(=O)O)c1ccc(C(=O)O)c(Br)c1
inactive: [5] 91 % of control | [6] 93 % of control | [7] 101 % of control

CC(=O)NS(=O)(=O)c1ccc(N=CC2C(=O)N(c3ccccc3)N(c3ccccc3)C2=O)cc1
inactive: dose: 25.0 mg/kg/injection, schedule: Q01DX001 (ip), vehicle: Klucel (hydroxypropylcellulose) (HPC) 86 % of control | dose: 50.0 mg/kg/injection, schedule: Q01DX001 (ip), vehicle: Klucel (hydroxypropylcellulose) (HPC) 91 % of control | dose: 100.0 mg/kg/injection, schedule: Q01DX001 (ip), vehicle: Klucel (hydroxypropylcellulose) (HPC) 92 % of control

CNC(=O)OCc1c(COC(=O)NC)c(-c2cccs2)n2c1CCC2
inactive: [8] 122 % of control | [9] 104 % of control

Cc1ccc(C2(C)OC(CCl)CS2)c(C)c1 (stereo not drawn)
inactive: [10] 101 % of control and 98 % of control | [5] 104 % of control and 98 % of control | [6] 105 % of control | [7] 107 % of control and 119 % of control

O=C1C(Cl)=C(n2c3ccccc3c3ccccc32)C(=O)c2ccccc21
inactive: dose: 6.25 mg/kg/injection, schedule: Q01DX005 (ip), vehicle: saline with Tween-80 108 % of control | [8] 104 % of control

CC1CC(=O)Nc2ncccc2N1 (stereo not drawn)
inactive: [5] 94 % of control | [6] 94 % of control | [7] 94 % of control

NN(C(=O)c1ccccc1)C1CCCCC1
inactive: dose: 12.5 mg/kg/injection, schedule: Q04DX003 (ip), vehicle: saline 95 % of control | dose: 25.0 mg/kg/injection, schedule: Q04DX003 (ip), vehicle: saline 104 % of control | dose: 50.0 mg/kg/injection, schedule: Q04DX003 (ip), vehicle: saline 100 % of control

COc1ccc(CSC2=C(C#N)C(=O)NC3(CCCCC3)S2)cc1
inactive: [5] 112 % of control | [6] 95 % of control | [7] 97 % of control

CN1CC(C(N)=O)=CC(C(N)=O)C1 (stereo not drawn)
inactive: dose: 25.0 mg/kg/injection, schedule: Q01DX005 (ip), vehicle: saline 97 % of control | dose: 50.0 mg/kg/injection, schedule: Q01DX005 (ip), vehicle: saline 96 % of control | dose: 100.0 mg/kg/injection, schedule: Q01DX005 (ip), vehicle: saline 113 % of control | dose: 200.0 mg/kg/injection, schedule: Q01DX005 (ip), vehicle: saline 111 % of control

c1ccc(/C(=N\Nc2ccc3ccccc3n2)c2ccccn2)cc1
inactive: [9] 110 % of control | [11] 94 % of control | [12] 100 % of control

O=c1c2[nH]c3ccccc3sc=2c(=O)n1-c1cccc(Cl)c1
inactive: [9] 102 % of control | [11] 102 % of control | [12] 105 % of control

C/C=C/C=C/C1=C2C(=O)N(c3ccccc3)N=C2CC(C)O1 (stereo not drawn)
inactive: [13] 100 % of control | [14] 104 % of control

C[N+](C)(C)CC(O)c1ccc(O)c(O)c1 (stereo not drawn)
inactive: dose: 6.25 mg/kg/injection, schedule: Q01DX009 (ip), vehicle: saline 113 % of control | [1] 100 % of control | [2] 97 % of control | [3] 100 % of control

O=C1N(Cc2ccccc2)CCN1Cc1ccccc1
inactive: [13] 95 % of control | [14] 94 % of control | [15] 104 % of control

Cc1c(C(=N)C(C#N)C#N)c(=N)oc2c1ccc1ccccc12
inactive: [16] 94 % of control and 97 % of control | [17] 86 % of control and 96 % of control | [10] 115 % of control and 87 % of control and 95 % of control | [5] 123 % of control and 94 % of control (2×) | [6] 100 % of control and 92 % of control | [7] 116 % of control

CC1(C)COC2(OCC(COc3ccccc3)O2)C1O (stereo not drawn)
inactive: dose: 60.0 mg/kg/injection, schedule: Q01DX005 (ip), vehicle: Klucel (hydroxypropylcellulose) (HPC) 104 % of control | dose: 120.0 mg/kg/injection, schedule: Q01DX005 (ip), vehicle: Klucel (hydroxypropylcellulose) (HPC) 98 % of control | dose: 240.0 mg/kg/injection, schedule: Q01DX005 (ip), vehicle: Klucel (hydroxypropylcellulose) (HPC) 98 % of control

COc1ccc(C2OC3=C(Nc4ccc([N+](=O)[O-])cc4N3)C2=O)c(OC)c1 (stereo not drawn)
inactive: [13] 93 % of control | [14] 101 % of control | [15] 101 % of control

CCCCCCCCCCCCCCCCCC(=O)N[C@@H](Cc1ccc(N(CCCl)CCCl)cc1)C(=O)NCCCCCC
inactive: dose: 2.12 mg/kg/injection, schedule: Q01DX009 (ip), vehicle: saline 109 % of control | dose: 2.12 mg/kg/injection, schedule: Q03HX008 (ip), vehicle: saline 90 % of control | dose: 4.24 mg/kg/injection, schedule: Q01DX009 (ip), vehicle: saline 113 % of control | dose: 4.24 mg/kg/injection, schedule: Q03HX008 (ip), vehicle: saline 100 % of control | dose: 8.48 mg/kg/injection, schedule: Q03HX008 (ip), vehicle: saline 100 % of control | dose: 16.95 mg/kg/injection, schedule: Q03HX008 (ip), vehicle: saline 100 % of control | dose: 33.9 mg/kg/injection, schedule: Q03HX008 (ip), vehicle: saline 90 % of control | dose: 67.8 mg/kg/injection, schedule: Q03HX008 (ip), vehicle: saline 90 % of control

C[S+]1C2(C3CC4CC(C3)CC2C4)C12C1CC3CC(C1)CC2C3 (stereo not drawn)
inactive: dose: 50.0 mg/kg/injection, schedule: Q01DX005 (ip), vehicle: distilled water + alcohol 104 % of control | dose: 100.0 mg/kg/injection, schedule: Q01DX005 (ip), vehicle: distilled water + alcohol 109 % of control

CCc1cc(COC(C)=O)on1
inactive: dose: 50.0 mg/kg/injection, schedule: Q01DX009 (ip), vehicle: Klucel (hydroxypropylcellulose) (HPC) 105 % of control | dose: 100.0 mg/kg/injection, schedule: Q01DX009 (ip), vehicle: Klucel (hydroxypropylcellulose) (HPC) 109 % of control | dose: 200.0 mg/kg/injection, schedule: Q01DX009 (ip), vehicle: Klucel (hydroxypropylcellulose) (HPC) 109 % of control

CC(C)(C)C1CN2CCO[Si](CC[Si](C)(C)C)(OCC2)O1 (stereo not drawn)
inactive: [13] 98 % of control | [14] 97 % of control | [15] 88 % of control

Cc1ccc2[nH]c(=S)[nH]c2c1
inactive: [10] 95 % of control | [5] 94 % of control | [6] 96 % of control | [7] 93 % of control

O=C1C(Cl)=CC(=NS(=O)(=O)c2ccccc2)C=C1Cl
inactive: dose: 3.13 mg/kg/injection, schedule: Q01DX009 (ip), vehicle: saline with Tween-80 100 % of control | [16] 105 % of control | dose: 6.25 mg/kg/injection, schedule: Q04DX003 (ip), vehicle: saline with Tween-80 95 % of control | [17] 120 % of control

O=C(CCCCC(=O)N/N=C/c1cccc([N+](=O)[O-])c1)N/N=C/c1cccc([N+](=O)[O-])c1
inactive: dose: 60.0 mg/kg/injection, schedule: Q01DX005 (ip), vehicle: saline with Tween-80 100 % of control | dose: 120.0 mg/kg/injection, schedule: Q01DX005 (ip), vehicle: saline with Tween-80 92 % of control | dose: 240.0 mg/kg/injection, schedule: Q01DX005 (ip), vehicle: saline with Tween-80 94 % of control

O=[N+]([O-])c1ccccc1-c1ccccc1N=Cc1ccccc1
inactive: [16] 96 % of control | [17] 106 % of control | [10] 86 % of control

CN(C)C1CCc2ccccc2C1OC(=O)c1ccccc1 (stereo not drawn)
inactive: [5] 101 % of control | [6] 107 % of control

O=C1C(N=Nc2ccccc2)C(O)N(c2ccc(Cl)cc2)C(=S)N1c1cccc(Cl)c1Cl (stereo not drawn)
inactive: dose: 100.0 mg/kg/injection, schedule: Q04DX002 (ip), vehicle: Klucel (hydroxypropylcellulose) (HPC) 100 % of control | dose: 200.0 mg/kg/injection, schedule: Q04DX002 (ip), vehicle: Klucel (hydroxypropylcellulose) (HPC) 100 % of control | dose: 400.0 mg/kg/injection, schedule: Q04DX002 (ip), vehicle: Klucel (hydroxypropylcellulose) (HPC) 99 % of control
